5 compounds from patent US20020091095A1, “Modulation of Fas and FasL expression” (priority 1999, published 2002) can be followed below.

The subject of experiment [1] is Fas. Description: Inhibition of Fas expression on Jurkat cells by cycloheximide. The experiment is classed as cell-based, human. The settings on record: Jurkat cells, 0.1 μg/ml cycloheximide. Here is the method:
(§1) Fas and FasL expression were measured by flow cytometry using anti-Fas FITC-conjugated monoclonal antibodies and anti-FasL PE-conjugated monoclonal antibodies in a FACScalibur Flow Cytometer (Becton Dickinson, San Jose, Calif., USA) using the CELLQuest program (Becton Dickinson).
(§2) Results are expressed as percentage (%) increase in the expression of Fas and of FasL measured on treated cells compared to control cells.
Jurkat human leukemia T cells were pre-incubated with 0.0 μg/ml (−CHX) or with 0.1 μg/ml of cycloheximide (+CHX) for 1 h. Ten μg/ml or 100 μg/ml of 6 base SEQ ID NO:5 (GGGTGG) was added to both the −CHX and +CHX cells and the incubation was continued for 24 hours and for 48 hours (Table 10).

Experiment [2] deals with FasL. Description: FasL expression at the cell surface by flow cytometry, OVCAR-3 cells. To be noted: OVCAR-3 ovarian cancer cells, 100 μg/ml sequence, 48 h, treated vs control cells. The experiment is classed as cell-based, human. Here is the method: (§3) Cancer cells and PBMCs were seeded in 6 well flat-bottom microplates and were maintained at 37° C. in a 5% CO2 atmosphere. Unless stated otherwise, 2×10^5 cells/ml were incubated for 48 h with 0 μg/ml (control) or 100 μg/ml ([…]) (treated) of the sequences.
as §1, §2
(§4) OVCAR-3 ovarian cancer cells are a p53 mutated, p21/waf-1/Cip deleted, metastatic human solid tumor model.

The test system of experiment [3] is Fas. Kind of experiment: Fas expression at the cell surface by flow cytometry, PBMCs. The experiment is classed as cell-based, human. The settings on record: 100 μg/ml sequence, 48 h, treated vs control cells. Here is the method:
(§5) Peripheral blood mononuclear cells (hereinafter, “PBMCs”) were isolated from human blood by Ficoll-Hypaque (Amersham Pharmacia Biotech, Baie d'Urfée, Québec, Canada) density gradient centrifugation.
as §3, §1, §2

In experiment [4] the test system is FasL. Description: FasL expression at the cell surface by flow cytometry, MCF-7 cells. The experiment is classed as cell-based, human. The settings on record: MCF-7 breast cancer cells, 100 μg/ml sequence, 48 h, treated vs control cells. Here is the method:
as §3, §1, §2
(§6) MCF-7 human breast cancer cells are a caspase-3 negative, estrogen-dependent human solid tumor model.

Experiment [5] relates to FasL. Kind of experiment: FasL expression at the cell surface by flow cytometry, Jurkat cells. Format: cell-based. The settings on record: Jurkat human leukemia T cells, 100 μg/ml sequence, 48 h, treated vs control cells. Here is the method:
as §3, §1, §2
(§7) Jurkat human leukemia T cells are an atypical multi-drug resistant human suspension tumor cell model.
Background: Flow cytometry measures light scatter and fluorescence of single cells or particles in a stream.

For experiment [6], the system named is Fas. Kind of experiment: Fas expression at the cell surface by flow cytometry, MCF-7 cells. The experiment is classed as cell-based, human. The settings on record: MCF-7 breast cancer cells, 100 μg/ml sequence, 48 h, treated vs control cells. The protocol: as §3, §1, §2, §6
The test system of experiment [7] is FasL. Kind of experiment: FasL expression at the cell surface by flow cytometry, SK-OV-3 cells. To be noted: SK-OV-3 ovarian cancer cells, 100 μg/ml sequence, 48 h, treated vs control cells. The experiment is classed as cell-based, human. The protocol: as §3, §1, §2
(§8) SK-OV-3 ovarian cancer cells are a p53 mutated, p21/waf-1/Cip deleted, p15^ink4B,p16^ink4 deleted metastatic human solid tumor model.

In experiment [8] the test system is Fas. Description: Fas expression at the cell surface by flow cytometry, T-24 cells. Format: cell-based, human. To be noted: T-24 bladder cancer cells, 100 μg/ml sequence, 48 h, treated vs control cells. Here is the method: as §3, §1, §2
(§9) T-24 bladder cancer cells are a p53 mutated human cell line T-24 cells (1.0×10^5 cells/ml) were incubated with the 6 base sequences shown in Table 4.

In experiment [9] the test system is FasL. Description: FasL expression at the cell surface by flow cytometry, LNCaP cells. The settings on record: LNCaP prostate cancer cells, 100 μg/ml sequence, 48 h, treated vs control cells. The experiment is classed as cell-based, human. Here is the method:
as §3, §1, §2
(§10) LNCaP prostate cancer cells are a TGF-beta 1 receptor negative, […], metastatic human solid tumor model.

In experiment [10] the test system is FasL. Kind of experiment: FasL expression at the cell surface by flow cytometry, T-24 cells. The settings on record: T-24 bladder cancer cells, 100 μg/ml sequence, 48 h, treated vs control cells. Format: cell-based, human. The protocol: as §3, §1, §2, §9
In experiment [11] the test system is Fas. Kind of experiment: Fas expression at the cell surface by flow cytometry, Jurkat cells. The experiment is classed as cell-based. The settings on record: Jurkat human leukemia T cells, 100 μg/ml sequence, 48 h, treated vs control cells. Here is the method: as §3, §1, §2, §7
Experiment [12] concerns Fas. Kind of experiment: Fas expression at the cell surface by flow cytometry, UMUC-3 cells. Format: cell-based, human. To be noted: UMUC-3 bladder cancer cells, 100 μg/ml sequence, 48 h, treated vs control cells. Here is the method:
as §3, §1, §2
(§11) UMUC-3 bladder cancer cells are a P-glycoprotein overexpressing human cell line.

Experiment [13] has as its system FasL. Description: FasL expression at the cell surface by flow cytometry, UMUC-3 cells. Format: cell-based, human. The settings on record: UMUC-3 bladder cancer cells, 100 μg/ml sequence, 48 h, treated vs control cells. Here is the method: as §3, §1, §2, §11
The test system of experiment [14] is FasL. Kind of experiment: FasL expression at the cell surface by flow cytometry, PBMCs. Format: cell-based, human. To be noted: 100 μg/ml sequence, 48 h, treated vs control cells. The protocol:
as §5, §3, §1, §2

In experiment [15] the test system is Fas. Kind of experiment: Fas expression at the cell surface by flow cytometry, LNCaP cells. The experiment is classed as cell-based, human. The settings on record: LNCaP prostate cancer cells, 100 μg/ml sequence, 48 h, treated vs control cells. The protocol:
as §3, §1, §2, §10

The test system of experiment [16] is Fas. Description: Fas expression at the cell surface by flow cytometry, OVCAR-3 cells. Format: cell-based, human. To be noted: OVCAR-3 ovarian cancer cells, 100 μg/ml sequence, 48 h, treated vs control cells. The protocol: as §3, §1, §2, §4
Experiment [17] has as its system Fas. Description: Fas expression at the cell surface by flow cytometry, SK-OV-3 cells. The experiment is classed as cell-based, human. To be noted: SK-OV-3 ovarian cancer cells, 100 μg/ml sequence, 48 h, treated vs control cells. Here is the method: as §3, §1, §2, §8

Take `C[C@@H]1C[C@@H]([C@H](O)CC2CC(=O)NC(=O)C2)C(=O)[C@@H](C)C1` [cycloheximide, reference compound]: the “decrease of Fas expression by cycloheximide” value came out at 92% in the experiment on Fas [1] (with 10 μg/ml of SEQ ID NO:5, after 24 h); 44% in the experiment with Fas [1] (with 10 μg/ml of SEQ ID NO:5, after 48 h); 65% in the experiment on Fas [1] (with 100 μg/ml of SEQ ID NO:5, after 24 h); 23% with Fas [1] (with 100 μg/ml of SEQ ID NO:5, after 48 h).

As for TGGTTG [SEQ ID NO:9], the “% INCREASE FasL” value is 270% with FasL [2]; 481% with FasL [4]; 952% with FasL [5]; 53% with FasL [7]; 241% with FasL [9]; 397% in the experiment on FasL [10]. Besides, the “% INCREASE FasL” value with FasL [13] is reported as 300%; in the experiment with FasL [14], 1322%. The “% INCREASE Fas” value was 1043% with Fas [3]; 255% in the experiment on Fas [6]; 180% in the experiment on Fas [8]; 362% in the experiment with Fas [11]; 143% in the experiment with Fas [12]; 184% in the experiment on Fas [15]. Moreover, the “% INCREASE Fas” value in the experiment on Fas [16] was 221%; with Fas [17], 63%.

Consider TGTGTG [SEQ ID NO:1], for which the “% INCREASE FasL” value is 70% with FasL [2]; 121% in the experiment with FasL [4]; 93% in the experiment on FasL [5]; 37% in the experiment on FasL [7]; 40% with FasL [9]; 213% in the experiment with FasL [10]. The results for the “% INCREASE FasL” value in the experiment on FasL [13] and in the experiment with FasL [14] were 112% and 260%, respectively. For the same compound, the “% INCREASE Fas” value with Fas [3] worked out at 126%; with Fas [6], 122%; with Fas [8], 84%; in the experiment with Fas [11], 52%; in the experiment on Fas [12], 72%; in the experiment with Fas [15], 29%. Besides, the “% INCREASE Fas” value in the experiment on Fas [16] worked out at 64%; in the experiment with Fas [17], 49%.

TTGTTT [SEQ ID NO:6]: the “% INCREASE FasL” value in the experiment with FasL [2] is listed as 98%; with FasL [4], 159%; in the experiment on FasL [5], 140%; with FasL [7], 24%; in the experiment on FasL [9], 73%; in the experiment on FasL [10], 152%. Also, the “% INCREASE FasL” value was determined as 132% in the experiment on FasL [13] and 441% in the experiment on FasL [14]. Besides, the “% INCREASE Fas” value in the experiment with Fas [3] is on record as 338%; in the experiment with Fas [6], 143%; in the experiment with Fas [8] it was 116%; in the experiment with Fas [11], 126%; in the experiment with Fas [12], 57%; in the experiment on Fas [15], 40%. Further, the results for the “% INCREASE Fas” value with Fas [16] and with Fas [17] were 65% and 41%, respectively.

With TTTGTT [SEQ ID NO:3], the “% INCREASE FasL” value with FasL [2] came to 341%; with FasL [4] it was 528%; with FasL [5], 497%; in the experiment with FasL [7] it was 103%; in the experiment with FasL [9] it was 344%; with FasL [10], 549%. Further, the “% INCREASE FasL” value is on record as 231% in the experiment with FasL [13] and 1528% in the experiment on FasL [14]. Besides, the “% INCREASE Fas” value amounted to 1165% in the experiment on Fas [3]; 361% in the experiment with Fas [6]; 279% with Fas [8]; 258% in the experiment with Fas [11]; 108% in the experiment on Fas [12]; 199% in the experiment on Fas [15]. The figures for the “% INCREASE Fas” value in the experiment on Fas [16] and in the experiment with Fas [17] were 193% and 108%, respectively.
